Earlier results in US12640239B2, “Functional biomarkers for statin therapy in age-related macular degeneration (AMD)” (APELIOTUS TECHNOLOGIES, INC., priority 2017, dated 2026).

Tested on: older adults with normal retinal health or AMD
Conditions: 30-day course of 50,000 international units of oral retinol, cited from earlier work

CC1=C(/C=C/C(C)=C/C=C/C(C)=C/CO)C(C)(C)CCC1 [retinol]
Dark adaptation vs placebo group (30-day follow-up, 52 per group): significantly faster dark adaptation than the placebo group | Visual acuity vs placebo group (30-day follow-up): no difference in visual acuity between the groups | Improvement in dark adaptation after washout (after an additional 30-day washout period): reversed to the baseline level
